Measurements from publication PMC3767973 (Chembiochem : a European journal of chemical biology, 2013).

Tests used:
[1] = target: T1, IspC (Escherichia coli, UniProt P45568); experiment: Inhibition of the coupling enzyme IspC by BnAP; assay type: biochemical; conditions: up to 1.5 mM
T1 sequence (P45568 1-398): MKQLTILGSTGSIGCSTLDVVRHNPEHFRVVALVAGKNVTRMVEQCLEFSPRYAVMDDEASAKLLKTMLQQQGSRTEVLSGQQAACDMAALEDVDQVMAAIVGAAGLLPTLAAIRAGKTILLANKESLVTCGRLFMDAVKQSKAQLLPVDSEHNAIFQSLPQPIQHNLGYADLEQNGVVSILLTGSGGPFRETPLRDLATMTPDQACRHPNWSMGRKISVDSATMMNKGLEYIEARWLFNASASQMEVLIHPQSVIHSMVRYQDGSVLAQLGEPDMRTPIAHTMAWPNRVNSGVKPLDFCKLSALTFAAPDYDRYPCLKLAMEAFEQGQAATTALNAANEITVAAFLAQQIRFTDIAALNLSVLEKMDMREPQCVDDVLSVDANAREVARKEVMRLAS

[2] = target: T2, DXP synthase (Escherichia coli, UniProt P77488); experiment: Aromatic aldehydes as DXP synthase acceptor substrates; assay type: biochemical
T2 sequence (P77488 1-620): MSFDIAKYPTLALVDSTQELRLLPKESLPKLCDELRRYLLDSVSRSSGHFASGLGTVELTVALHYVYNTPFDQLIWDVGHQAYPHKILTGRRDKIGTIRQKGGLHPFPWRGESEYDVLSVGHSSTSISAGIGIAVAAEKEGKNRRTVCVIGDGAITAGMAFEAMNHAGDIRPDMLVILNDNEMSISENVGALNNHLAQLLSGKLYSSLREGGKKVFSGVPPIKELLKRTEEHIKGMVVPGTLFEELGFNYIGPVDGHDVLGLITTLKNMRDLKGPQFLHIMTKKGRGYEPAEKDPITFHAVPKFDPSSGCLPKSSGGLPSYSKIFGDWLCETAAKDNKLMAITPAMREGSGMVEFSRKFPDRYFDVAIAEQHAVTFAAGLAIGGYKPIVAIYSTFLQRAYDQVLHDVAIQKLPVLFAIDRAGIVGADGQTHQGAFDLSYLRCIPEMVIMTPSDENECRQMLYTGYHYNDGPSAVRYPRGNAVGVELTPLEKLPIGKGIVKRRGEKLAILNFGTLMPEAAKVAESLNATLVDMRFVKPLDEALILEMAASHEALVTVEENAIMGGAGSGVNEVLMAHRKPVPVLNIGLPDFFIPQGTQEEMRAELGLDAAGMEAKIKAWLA

[3] = target: T3, E. coli DXP synthase (Escherichia coli, UniProt P77488); assay type: biochemical; conditions: 100 mM HEPES pH 8.0, 10-20 mM pyruvate, 10% DMSO, 37 °C; average ± SEM, triplicate
T3 sequence (P77488 1-620): T2 sequence (P77488 1-620)

[4] = tested on: Porcine PDH E1 subunit; experiment: Kinetic parameters of nitroso substrates with PDH; assay type: biochemical; conditions: read-out: PDH Km; 100 mM HEPES pH 8.0, 10-20 mM pyruvate, 10% DMSO, 37 °C; average ± SEM, triplicate
[5] = target: DXP synthase (Escherichia coli, UniProt P77488); conditions: 0.5-5 mM nitroso substrate, 10-20 mM pyruvate, 37 °C, HPLC
[6] = tested on: yeast TK; conditions: cited from earlier work

CC(=O)P(=O)(O)OCc1ccccc1 [BnAP, benzylacetylphosphonate]
Inhibition of the coupling enzyme (IspC) [1]: not observed

O=Cc1c(O)cc([N+](=O)[O-])cc1[N+](=O)[O-] [2-Hydroxy-4,6-dinitrobenzaldehyde]
kcat ([2]; aromatic aldehyde as acceptor substrate): 0.00583 ± 0.00083 s⁻¹
Km relative to the natural substrate D-GAP ([2]; fold higher than D-GAP): ~ 18 fold

CN(C)c1ccc(N=O)cc1 [Compound 4]
Km [3]: 54 ± 13 µM
kcat [3]: 0.015 ± 0.0017 s⁻¹
Km [4]: 408 ± 60 µM
Substrate for DXP synthase (turnover) [5]: is a substrate
Substrate for yeast TK [6]: not a substrate

O=Nc1ccccc1 [Compound 1, nitrosobenzene]
kcat [3]: 2.92 ± 0.317 s⁻¹
Km [4]: 350 ± 30 µM

O=C[C@H](O)COP(=O)(O)O [D-GAP, D-glyceraldehyde 3-phosphate, reference compound]
kcat [3]: 1.7 ± 0.12 s⁻¹
